From a melting point compilation (Tetko et al.; mined from patent text by program, amines drawn as free bases though some values may be those of a salt)

| SMILES | melting point |
| --- | --- |
| CC(=O)N1c2ccccc2Sc2nccnc21 | 174 to 175 °C |
| Nc1c(Br)cc(Br)n2nc(SCc3ccccc3)nc12 | 116 to 118 °C |
| Cc1oc(C2(C)CC=CCC2)nc1CC(=O)O (configuration not stated) | 144 to 145 °C |
| O=C(NC1CCC(CCN2CCN(c3nccc4c3OCC4)CC2)CC1)c1ccc(N2CCS(=O)(=O)CC2)cc1 (configuration not stated) | 260 °C |
| Cn1c(=O)c(-c2c(Cl)cccc2Cl)cc2cnc(Nc3ccccc3)nc21 | 247 to 249 °C |
| CN(C)C(=O)Cc1c[nH]c2ccc(I)cc12 | 195 to 200 °C |
| CCc1cc2c(s1)N(C(=O)NCCN(C)C)CCN=C2c1ccccc1Cl | 160 to 162 °C |
| CC(C)CCN1C(=O)C(NC(=O)Nc2cccc(-c3nnn[nH]3)c2)C(=O)N(c2ccccc2)c2ccccc21 (configuration not stated) | 220 to 222 °C |
| COC(=O)CN(c1cc(OCc2ccccc2)cc2ccc(OC)cc12)S(N)(=O)=O | 137 to 139 °C |
| C/C(=C\c1ccc(C#N)cc1)c1ccc2c(c1)C(C)(C)C=CC2(C)C | 140 to 142 °C |
| CC(CNc1ccc(Cl)cc1)COc1ccc(C(=O)O)cc1 (configuration not stated) | 148 to 150 °C |
| NC(=O)c1nccn1C1Cc2c(Cl)cccc2C1=O (configuration not stated) | 90 °C |
| COc1ccc([C@H](Sc2ccccc2NC(C)=O)[C@@H](O)C(=O)O)cc1 | 173 to 175 °C |
| CS(=O)(=O)c1ccc(Br)cc1Br | 124 to 126 °C |
| CCN1C(=O)CCCc2cc(Nc3ncc(Cl)c(Nc4ccccc4S(=O)(=O)N(C)C)n3)c(OC)cc21 | 147 to 153 °C |
| COc1cc(-c2nc(NC(=O)c3cc4cc(C)ccc4n3CC(=O)O)sc2CCC2CCCCC2)c(OC)cc1Cl | 204 to 208 °C |

| SMILES | melting point |
| --- | --- |
| CCCCCCCCCCCCc1ccc(S(=O)(=O)Nc2nnc(CC)s2)cc1 | 93 to 94 °C |
| Cc1ccc(C)c(OCc2ccccc2C(=O)c2cc(C)no2)c1 | 106 to 108 °C |
| N#Cc1ccc(S(=O)(=O)N2CCN(c3ccncc3)CC2)cc1 | 212 to 213 °C |
| Cc1nc2cnccc2n1-c1ccc(O)cc1 | 265 to 267 °C |
| O=C(Nc1ccccc1S(=O)(=O)c1ccccc1)N[C@@H](Cc1ccc(OC(=O)c2c(Cl)cncc2Cl)cc1)C(=O)O | 186 °C |
| CCOC(=O)C1=C(C)NC(C)=C(C(=O)OCC)C1c1ccccc1[N+](=O)[O-] | 120 to 121 °C |
| C[C@@H](c1ccc(F)cc1)N1Cc2cncn2C(C)(c2ccc(C#N)cc2)C1=O (some centres not stated) | 78 to 82 °C |
| Nc1c(-c2cc(Cl)ccc2O)c2cc(Cl)c(C(F)(F)F)cc2[nH]c1=O | 245 to 246 °C |
| O=C(CCc1ccc(Br)cc1)Cn1ccnc1 | 71 to 73 °C |
| CCCSc1ncc(C(=O)O)n1Cc1ccccc1Cl | 158 to 160 °C |
| CN(C)CCNc1ccnc2cc(C(F)(F)F)ccc12 | 110 to 113 °C |
| Cc1c(Br)nc2n1CCc1ccccc1C2=C1CCN(C)CC1 | 116 °C |
| CCOC(=O)Nc1ccc(C(c2ccccc2)n2ccnc2)cc1C=O (configuration not stated) | 107 °C |
| CNC(=O)NCCn1c(-c2ccc(CN3CCOCC3)c(C)c2)csc1=Nc1ccc(F)c(C)c1 | 139 to 140 °C |
| CC(C)C(CO)(CO)[N+](=O)[O-] | 67 to 72 °C |
| CC[C@@H](NC(=O)N1CC(=O)NCC(Cc2cc(Cl)ccc2OC)C1=O)C(=O)Nc1ccc(C)c(C(=O)O)c1 (some centres not stated) | 132 to 134 °C |

Other lines, results leading:

| melting point | SMILES |
| --- | --- |
| 100 to 103 °C | CC(=O)N1CCC(Oc2cccc(C(F)(F)F)c2)(c2ccccc2)CC1 |
| 190 to 192 °C | CCCc1cc(=O)oc2cc(O)c3c(c12)OC(C)(C)C=C3 |
| 156 to 157 °C | O=C(c1ccco1)C1C(=O)N(c2nccs2)c2ccccc21 (configuration not stated) |
| 97.5 to 99 °C | CC(C)NCC1(O)COc2ccc([N+](=O)[O-])cc2OC1 (configuration not stated) |
| 278 to 280 °C | CN1CCN(c2ccc(N/C=C3\C(=O)NC(=O)c4ccc(C(=O)O)cc43)cc2)CC1 |
| 95 to 97 °C | O=C(O)C1CSC(C2CCCCC2)=NN1C(=O)CCS (configuration not stated) |
| 190 °C | Cn1c(=O)cc(-c2nc(-c3ccccc3)cs2)c2cc(C(c3ccc(Cl)cc3)c3cnc(-c4ccccc4)[nH]3)ccc21 (configuration not stated) |
| 305 to 308 °C | Nc1nc2c(ncn2Cc2ccccc2)c(=O)[nH]1 |
| 114 to 116 °C | CCOC(=O)c1cnccc1NC(=O)Cc1c(F)cccc1Cl |
| 146 to 147 °C | CC(=O)NCCn1ccc2c1-c1c(Cl)cccc1CC2 |
| 117 to 120 °C | CN(C)S(=O)(=O)c1cccc(NN)n1 |
| 163 to 164 °C | CC[C@@H](O)C1(c2onc(-c3ccc(O)cc3)c2-c2ccccc2)CC1 |
| 115 to 116 °C | CCc1c(C(=O)c2cc(C)cc(C)c2)n(COCc2ccccc2)c(=O)[nH]c1=O |
| 212 to 214 °C | N#Cc1cccc(C2=Nc3ccc(CCc4ccccc4)cc3NC(=O)C2)c1 |
| 142 to 143 °C | C[C@@H](n1cccn1)[C@](O)(Cn1ccnc1)c1ccc(F)cc1F |
| 180 to 185 °C | COc1ccc(S(=O)(=O)NCc2ccccc2)c2c1oc1ccccc12 |
| 124 to 126 °C | CCOC(=O)C1CCN(c2cc(-c3ccc(Cl)cc3)nc3ccccc23)CC1 |
| 174 to 176 °C | CCc1[nH]nc2c1C(=O)c1c(NC(=O)CN3CCC(CN)CC3)cccc1-2 |
| 98.5 to 101 °C | CN(C)CCCC1(c2ccc(OC3CCCCO3)cc2)Sc2ccccc2N(C)C1=O (configuration not stated) |
| 128 °C | O=C(Oc1ccccc1)N1Cc2ccccc2C2(Cc3ccccc3O2)C1 (configuration not stated) |

| melting point | SMILES |
| --- | --- |
| 218 to 220 °C | CC1CC(=O)NN=C1c1ccc(NC(=O)c2ccccc2O)cc1 (configuration not stated) |
| 251 to 253 °C | Cc1cc(Oc2ccc(N)cc2)c2cc3c(cc2n1)OCO3 |
| 238 °C | CC(=O)NCC1=CC(c2ccccc2)Cc2c1ccc(O)c2O (configuration not stated) |
| 157 to 158 °C | CNC(=O)N(O)CCNC(=O)c1cccc(Oc2ccc(Cl)cc2)c1 |
| 89 to 91 °C | COc1cccc(CC(=O)NCc2ccccc2Cl)c1 |
| 184 to 186 °C | CCC(=O)OCc1cc2c3ccccc3[nH]c(=O)n2n1 |
| 201 to 203 °C | Clc1nc(N2CCOCC2)nc(-n2cnc3ccccc32)n1 |
| 69 to 70 °C | CON(C)C(=O)c1ccc(C(F)(F)F)cc1O |
| 92 °C | CCN(CC)CCOc1ccc(Nc2ncc3c(n2)N(c2cccc(CCN(C)C)c2)C(=O)N(c2ccc(Cl)cc2Cl)C3)cc1 |
| 138 to 140 °C | Oc1cc(Br)c(-c2c3ccccc3c(Br)c3sc4ccccc4c23)cc1O |
| 136 to 138 °C | Cc1cc(C#N)ccc1-c1ccc(O)cc1 |
| 192 to 195 °C | CS(=O)(=O)c1ccc(-c2cnn(-c3ccc(F)cc3)c(=O)c2N2CCCC2)cc1 |
| 122 to 124 °C | O=S(=O)(Nc1cc(Cl)cc(Cl)c1)c1cc(S(=O)(=O)Nc2cc(Cl)cc(Cl)c2)c2cc(O)ccc2c1 |
| 100 to 102 °C | Nc1ccsc1C(=O)c1ccccc1 |
| 53 to 55 °C | CN(C=O)[C@@H]1CCCc2ccccc21 |
| 134 to 135 °C | CC(=O)N1c2ccccc2C[C@H]1C#N |
| 97.8 °C | CC(C)(C)NC(=O)N1CCN(Cc2ccccc2)C[C@@H]1C(=O)NCCc1cncn1Cc1ccc(C#N)cc1 |
| > 300 °C | CCOC(=O)CC[C@H](NC(=O)c1ccc(C(C)=Cc2cnc3nc(N)nc(N)c3c2)cc1)C(=O)OCC |
| 122 to 123 °C | CCOc1ccc2[nH]ccc2c1OCc1ccccc1 |
| 82 to 84 °C | O=C1CCCC(C(Sc2ccccc2)c2ccccc2)O1 (configuration not stated) |
